Values of other authors, collected in patent US7632826B2, “Use of agonists of the glucocorticosteroid and/or mineralo-corticosteroid receptors, in particular corticosteroids for the treatment of addiction” (Curamentis Ltd., priority 1998, dated 2009).

For `CC(=O)NCCCS(=O)(=O)O` [acamprosate], the Patients still abstinent (Austria (Whitworth et al., 1996), placebo 21%) is listed as 30%, the “Patients of the verum group still abstinent at end of study” value (German part of the study (Sass et al., 1996), after 48 weeks of treatment, placebo 20%) is listed as 42% and the “Addicted patients who did not achieve permanent abstinence despite treatment” value (average in Europe, placebo 85%) is listed as “approximately 70%”.
